Reference: US6630454B2, “Method and pharmaceutical composition for the treatment of cancer” (priority 2001, dated 2003)

Legend:
[1] = clinical studies, review (DeVita et al., 1993); cited from earlier work
[2] = test system: PANC-1, C6, MCF-7, U2OS and HT1080 cells
Protocol: Studies similar in general to those outlined in the previous section, were conducted with five cell lines selected for this task (PANC-1, C6, MCF-7, U2OS and HT1080), increasing the length of the experiment to 48 hours. The studies were done with DOX and with Vinblastine (VIN or VLB).

[3] = highest safe dose used for accepted indications; cited from earlier work
[4] = test system: C6 and PANC-1 cells; design: dose or concentration left out as unconfirmed; conditions: […] μM fluoxetine alone, 24 hours

CC/C(=C(\c1ccccc1)c1ccc(OCCN(C)C)cc1)c1ccccc1 [tamoxifen]
side effects / dose-limiting toxicity when used as chemosensitizer [1]: attributed to the inherent toxicity of the chemosensitizer

CN1CCN(CCCN2c3ccccc3Sc3ccc(C(F)(F)F)cc32)CC1 [trifluoperazine]
side effects / dose-limiting toxicity when used as chemosensitizer [1]: attributed to the inherent toxicity of the chemosensitizer

CNCCC(Oc1ccc(C(F)(F)F)cc1)c1ccccc1 (centres unmarked) [fluoxetine, N-methyl 3-(p-trifluoromethylphenoxy)-3-phenylpropylamine]
potentiation of the cytotoxic effect of the chemotherapeutic drug [2]: potentiates the cytotoxic effect
highest safety limit [3]: 15 µM
effect of fluoxetine alone on cell survival [4]: does not affect cell survival at all
